This note sets out measurements from patent US8202879B2, “Quinazoline derivatives having tyrosine kinase inhibitory activity” (Shionogi & Co., Ltd., priority 2005, dated 2012).

SMILES strings stand for the structures.

The target of one assay is T1, HER2 (Homo sapiens, UniProt P04626).
T1 construct: purchased Carna Biosciences, Inc; host or cells: insect cell expression system
The experiment in a line: Enzyme inhibitory activity on HER2 (time resolution fluorescence, biotinylated poly-Glu-Tyr substrate). Type of assay: biochemical. The following applies: enzyme reaction at room temperature for 60 minutes. The procedure, abridged: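 Insect-cell-expressed HER2 (1000 ng/ml working stock) with biotinylated poly-Glu-Tyr (4:1; 3.125 μg/ml stock) and ATP (290 μM solution) in TBS with MgCl2, MnCl2, Na3VO4 and BSA, 60 min at room temperature. 10-point 4-fold dilutions from a 1 mM top solution. Phosphotyrosine detected by TR-FRET with Eu-antibody and streptavidin-XL.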

The next assay concerns BT-474. The experiment in a line: In vitro cell proliferation inhibition, WST assay. It counts as cell-based, human. The following applies: Homo sapiens, BT-474, 72 h, BT-474 cells, cultured for 3 days, read-out: BT-474 (nM) proliferation inhibitory activity (IC50 value). The procedure: Test of In Vitro Cell Proliferation Inhibition of Test Compound
As a human-derived cancer cell strain, BT-474 was used. Cells were all cultured in a 37° C., 5% CO2 incubator in a medium in which 10% bovine fetal serum (ICN) and 50 units ml penicillin/60 μg/ml streptomycin solution (GIBCO) were added to Dulbecco's Modified Essential Medium (DMEM, Nacalai Tesque, Inc).

In another assay the target is T2, EGFR (Homo sapiens, UniProt P00533).
T2 construct: purchased Carna Biosciences, Inc; host or cells: insect cell expression system
T2 sequence (P00533 25-1210): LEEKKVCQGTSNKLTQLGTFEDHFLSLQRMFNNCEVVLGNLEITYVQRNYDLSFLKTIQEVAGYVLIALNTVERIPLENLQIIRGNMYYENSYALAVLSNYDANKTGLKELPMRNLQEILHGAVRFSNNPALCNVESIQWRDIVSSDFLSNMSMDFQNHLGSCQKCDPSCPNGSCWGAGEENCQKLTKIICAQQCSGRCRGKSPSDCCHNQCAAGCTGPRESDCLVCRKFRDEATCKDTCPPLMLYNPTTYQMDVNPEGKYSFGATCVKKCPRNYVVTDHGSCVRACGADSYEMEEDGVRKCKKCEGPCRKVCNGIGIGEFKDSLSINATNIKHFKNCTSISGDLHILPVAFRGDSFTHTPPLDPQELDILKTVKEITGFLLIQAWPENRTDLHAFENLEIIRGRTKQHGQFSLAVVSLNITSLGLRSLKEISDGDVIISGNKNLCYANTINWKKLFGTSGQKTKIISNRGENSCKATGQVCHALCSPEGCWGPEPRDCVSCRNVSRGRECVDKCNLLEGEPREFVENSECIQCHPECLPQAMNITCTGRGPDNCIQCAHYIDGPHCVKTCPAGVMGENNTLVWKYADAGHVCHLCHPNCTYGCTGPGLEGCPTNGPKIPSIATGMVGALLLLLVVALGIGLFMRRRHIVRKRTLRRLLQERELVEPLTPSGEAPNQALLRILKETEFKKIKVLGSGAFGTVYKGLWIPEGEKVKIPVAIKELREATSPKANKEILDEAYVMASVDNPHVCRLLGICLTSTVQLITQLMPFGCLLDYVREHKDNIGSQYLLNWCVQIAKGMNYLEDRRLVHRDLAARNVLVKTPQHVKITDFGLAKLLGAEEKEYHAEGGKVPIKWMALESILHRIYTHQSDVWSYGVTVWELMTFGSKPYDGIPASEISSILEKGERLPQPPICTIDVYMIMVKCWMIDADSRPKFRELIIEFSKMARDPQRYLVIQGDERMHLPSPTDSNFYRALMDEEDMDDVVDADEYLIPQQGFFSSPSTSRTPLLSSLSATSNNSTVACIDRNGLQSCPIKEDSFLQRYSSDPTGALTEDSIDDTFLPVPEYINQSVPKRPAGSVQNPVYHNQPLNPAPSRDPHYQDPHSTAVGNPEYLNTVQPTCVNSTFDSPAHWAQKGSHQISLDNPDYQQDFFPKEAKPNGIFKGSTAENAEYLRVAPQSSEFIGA
The experiment in a line: Enzyme inhibitory activity on EGFR (time resolution fluorescence, biotinylated poly-Glu-Tyr substrate). Type of assay: biochemical. The following applies: enzyme reaction at room temperature for 60 minutes. The procedure, abridged: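 Insect-cell-expressed EGFR phosphorylated biotinylated poly-Glu-Tyr (4:1) for 60 min at room temperature in TBS with MgCl2, MnCl2, Na3VO4 and BSA. Enzyme 250 ng/ml, substrate 3.125 μg/ml and ATP 125 μM as working solutions. EDTA stop; Eu anti-phosphotyrosine/streptavidin-XL time-resolved fluorescence read; 10-point 4-fold dilutions.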

T1 sequence (P04626 23-1255): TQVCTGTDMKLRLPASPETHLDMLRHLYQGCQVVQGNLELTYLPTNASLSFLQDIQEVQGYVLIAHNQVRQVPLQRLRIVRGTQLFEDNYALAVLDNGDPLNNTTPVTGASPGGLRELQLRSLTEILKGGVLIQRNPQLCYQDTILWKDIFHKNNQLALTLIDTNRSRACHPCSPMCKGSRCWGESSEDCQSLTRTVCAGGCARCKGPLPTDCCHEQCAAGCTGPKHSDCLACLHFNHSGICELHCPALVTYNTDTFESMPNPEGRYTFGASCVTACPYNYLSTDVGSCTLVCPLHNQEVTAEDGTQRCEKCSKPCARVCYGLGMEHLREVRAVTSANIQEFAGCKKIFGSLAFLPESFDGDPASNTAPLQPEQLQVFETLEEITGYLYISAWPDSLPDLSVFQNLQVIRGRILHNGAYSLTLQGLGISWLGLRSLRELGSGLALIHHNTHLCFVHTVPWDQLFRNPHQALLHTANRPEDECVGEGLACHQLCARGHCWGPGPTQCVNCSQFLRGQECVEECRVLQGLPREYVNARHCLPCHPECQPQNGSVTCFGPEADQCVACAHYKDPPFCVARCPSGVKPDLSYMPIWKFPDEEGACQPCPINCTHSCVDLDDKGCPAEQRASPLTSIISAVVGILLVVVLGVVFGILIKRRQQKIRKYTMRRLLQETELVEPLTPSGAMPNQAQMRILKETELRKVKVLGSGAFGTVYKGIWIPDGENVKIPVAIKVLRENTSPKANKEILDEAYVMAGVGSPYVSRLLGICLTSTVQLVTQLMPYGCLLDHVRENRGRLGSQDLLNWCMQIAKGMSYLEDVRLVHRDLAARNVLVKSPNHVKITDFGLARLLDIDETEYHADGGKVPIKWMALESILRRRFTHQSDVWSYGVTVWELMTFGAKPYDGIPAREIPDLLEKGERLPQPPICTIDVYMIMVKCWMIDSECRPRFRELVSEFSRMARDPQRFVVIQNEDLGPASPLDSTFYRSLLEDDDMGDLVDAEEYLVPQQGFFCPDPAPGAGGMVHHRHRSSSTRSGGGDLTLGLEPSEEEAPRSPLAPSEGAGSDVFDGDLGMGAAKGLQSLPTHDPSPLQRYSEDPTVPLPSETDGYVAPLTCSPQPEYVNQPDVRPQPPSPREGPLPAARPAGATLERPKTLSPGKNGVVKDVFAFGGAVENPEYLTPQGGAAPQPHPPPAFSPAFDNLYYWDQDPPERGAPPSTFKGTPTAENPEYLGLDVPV

With `CC#C/C(=N\OC[C@@H]1C[C@H](O)CN1)c1ccc2ncnc(Nc3ccc(OCc4ccccn4)c(Cl)c3)c2c1` [VIII-152], the IC50 on HER2 worked out at 4.3 nM; with BT-474 it was 22 nM; on EGFR, 2.4 nM.

Consider `CC#C/C(=N\OC[C@@H]1CCCN1)c1ccc2ncnc(Nc3ccc(OCc4ccccn4)c(Cl)c3)c2c1` [VIII-153], for which the IC50 against HER2 came to 11 nM; in the assay on BT-474 it was 21 nM; against EGFR, 10 nM.

For `CC#C/C(=N\OC[C@@H]1CCCN1C)c1ccc2ncnc(Nc3ccc(OCc4ccccn4)c(Cl)c3)c2c1` [VIII-154], the IC50 was 9 nM against HER2, 31 nM with BT-474 and 9.5 nM against EGFR.

Consider `CC#C/C(=N\O[C@@H]1CN[C@H](CO)C1)c1ccc2ncnc(Nc3ccc(OCc4ccccn4)c(Cl)c3)c2c1` [VIII-155], for which the figures for the IC50 on HER2, in the assay on BT-474 and against EGFR were 8 nM, 28 nM and 10 nM, respectively.

Take `CC#C/C(=N\OC[C@@H]1C[C@@H](O)CN1)c1ccc2ncnc(Nc3ccc(OCc4ccccn4)c(Cl)c3)c2c1` [VIII-156]: the IC50 came out at 6.4 nM against HER2, 24 nM in the assay on BT-474 and 7 nM at EGFR.

With `CC#C/C(=N\OC[C@H]1CCCN1)c1ccc2ncnc(Nc3ccc(OCc4ccccn4)c(Cl)c3)c2c1` [VIII-157], the IC50 turned out to be 4 nM against HER2, 25 nM with BT-474 and 4.1 nM against EGFR.

For `CC#C/C(=N\OC[C@H]1CCCN1C)c1ccc2ncnc(Nc3ccc(OCc4ccccn4)c(Cl)c3)c2c1` [VIII-158], the figures for the IC50 against HER2, with BT-474 and on EGFR were 3.8 nM, 27 nM and 3.8 nM, respectively.

On to `CC#C/C(=N\OC[C@H]1CCCN1CCO)c1ccc2ncnc(Nc3ccc(OCc4ccccn4)c(Cl)c3)c2c1` [VIII-159], for which the figures for the IC50 at HER2, in the assay with BT-474 and against EGFR were 19 nM, 15 nM and 16 nM, respectively.

As for `CC#C/C(=N\OC[C@@H]1CCCN1CCO)c1ccc2ncnc(Nc3ccc(OCc4ccccn4)c(Cl)c3)c2c1` [VIII-160], the IC50 is 18 nM on HER2, 47 nM in the assay on BT-474 and 17 nM on EGFR.

Regarding `CC#C/C(=N\O[C@H]1CN[C@H](CO)C1)c1ccc2ncnc(Nc3ccc(OCc4ccccn4)c(Cl)c3)c2c1` [VIII-161], the IC50 against HER2 stood at 15 nM; in the assay with BT-474, 49 nM; against EGFR, 14 nM.

As to `CC#C/C(=N\OCCN1CCS(=O)(=O)CC1)c1ccc2ncnc(Nc3ccc(OCc4ccccn4)c(Cl)c3)c2c1` [VIII-162], the IC50 against HER2 stood at 62 nM; in the assay on BT-474, 42 nM; against EGFR, 51 nM.

Regarding `CC#C/C(=N\OCCN1CCOCC1)c1ccc2ncnc(Nc3ccc(OCc4ccccn4)c(Cl)c3)c2c1` [VIII-163], the IC50 came to 27 nM at HER2, 38 nM in the assay on BT-474 and 23 nM at EGFR.

`CC#C/C(=N\OCCN1CCN(C)CC1)c1ccc2ncnc(Nc3ccc(OCc4ccccn4)c(Cl)c3)c2c1` [VIII-164]: the IC50 against HER2 came out at 7.6 nM; with BT-474, 31 nM; on EGFR, 7.3 nM.

Regarding `CC#C/C(=N\OCCN1CCC(O)CC1)c1ccc2ncnc(Nc3ccc(OCc4ccccn4)c(Cl)c3)c2c1` [VIII-165], the IC50 on HER2 is 11 nM; in the assay on BT-474, 23 nM; on EGFR, 11 nM.

As for `CC#C/C(=N\OC[C@H]1COCCN1)c1ccc2ncnc(Nc3ccc(OCc4ccccn4)c(Cl)c3)c2c1` [VIII-167], the figures for the IC50 against HER2, with BT-474 and on EGFR were 4.2 nM, 21 nM and 4.8 nM, respectively.

On to `CC#C/C(=N\OC[C@@H]1CNCCO1)c1ccc2ncnc(Nc3ccc(OCc4ccccn4)c(Cl)c3)c2c1` [VIII-168], for which the IC50 turned out to be 9 nM on HER2, 44 nM in the assay on BT-474 and 8 nM at EGFR.

Consider `CC#C/C(=N\OC[C@@H]1COCCN1)c1ccc2ncnc(Nc3ccc(OCc4ccccn4)c(Cl)c3)c2c1` [VIII-169], for which the IC50 amounted to 15 nM at HER2, 35 nM with BT-474 and 13 nM at EGFR.

For the compound `CC#CC(=NOCC1CNCCN1)c1ccc2ncnc(Nc3ccc(OCc4ccccn4)c(Cl)c3)c2c1` (stereo not drawn) [VIII-170], the IC50 is 5.6 nM against HER2, 19 nM in the assay on BT-474 and 5 nM on EGFR.

As to `CC#C/C(=N\OC[C@H]1CNCC(=O)N1)c1ccc2ncnc(Nc3ccc(OCc4ccccn4)c(Cl)c3)c2c1` [VIII-171], the IC50 was determined as 11.7 nM against HER2, 52 nM in the assay with BT-474 and 9.9 nM against EGFR.

On to `CC#CC(=NOCC1CN(C)CCN1C)c1ccc2ncnc(Nc3ccc(OCc4ccccn4)c(Cl)c3)c2c1` (stereo not drawn) [VIII-172], for which the IC50 was 16 nM against HER2, 70 nM with BT-474 and 14 nM against EGFR.

On to `CC#C/C(=N\OC[C@H]1CNCCO1)c1ccc2ncnc(Nc3ccc(OCc4ccccn4)c(Cl)c3)c2c1` [VIII-173], for which the values for the IC50 against HER2, in the assay on BT-474 and against EGFR were 3.9 nM, 40 nM and 4.8 nM, respectively.

Consider `CC#C/C(=N\OC[C@H]1CN(CCO)CCN1)c1ccc2ncnc(Nc3ccc(OCc4ccccn4)c(Cl)c3)c2c1` [VIII-174], for which the IC50 came out at 28 nM against HER2, 14 nM with BT-474 and 25 nM against EGFR.

As for `CC#C/C(=N\OC[C@H]1CN(C)CCN1)c1ccc2ncnc(Nc3ccc(OCc4ccccn4)c(Cl)c3)c2c1` [VIII-176], the results for the IC50 against HER2, in the assay with BT-474 and on EGFR were 26 nM, 26 nM and 23 nM, respectively.

On to `CC#C/C(=N\OC[C@H]1CNC[C@@H](C)O1)c1ccc2ncnc(Nc3ccc(OCc4ccccn4)c(Cl)c3)c2c1` [VIII-177], for which the IC50 on HER2 came out at 5.8 nM; with BT-474, 79 nM; against EGFR, 7.3 nM.

On to `CC#C/C(=N\OC[C@H]1CNC[C@H](C)O1)c1ccc2ncnc(Nc3ccc(OCc4ccccn4)c(Cl)c3)c2c1` [VIII-178], for which the IC50 was determined as 8.2 nM against HER2, 36 nM in the assay with BT-474 and 8.1 nM on EGFR.

As to `CC#C/C(=N\OC[C@@H]1CNCC(=O)N1)c1ccc2ncnc(Nc3ccc(OCc4ccccn4)c(Cl)c3)c2c1` [VIII-179], the figures for the IC50 at HER2, with BT-474 and against EGFR were 5 nM, 48 nM and 4.6 nM, respectively.

As for `CNCCO/N=C(\C#CCOC)c1ccc2ncnc(Nc3ccc(OCc4ccccn4)c(Cl)c3)c2c1` [VIII-180], the IC50 at HER2 stood at 6 nM; with BT-474 it was 5 nM; at EGFR, 7.8 nM.

Take `CC#C/C(=N\OCCNC)c1ccc2ncnc(Nc3ccc(OCc4ccccn4)c(Cl)c3)c2c1` [VIII-182]: the IC50 came to 7.3 nM against HER2, 20 nM with BT-474 and 4.7 nM against EGFR.

Take `CC#C/C(=N\OCCNC)c1ccc2ncnc(Nc3ccc4c(cnn4Cc4cccc(F)c4)c3)c2c1` [VIII-183]: the IC50 at HER2 came to 8.3 nM; in the assay with BT-474 it was 10 nM; at EGFR it was 7.1 nM.

On to `CC#C/C(=N\OCCNCCNC(C)=O)c1ccc2ncnc(Nc3ccc4c(cnn4Cc4cccc(F)c4)c3)c2c1` [VIII-184], for which the figures for the IC50 against HER2, with BT-474 and against EGFR were 7 nM, 9 nM and 10 nM, respectively.

For `CC#C/C(=N\OCCNCCNS(C)(=O)=O)c1ccc2ncnc(Nc3ccc4c(cnn4Cc4cccc(F)c4)c3)c2c1` [VIII-185], the IC50 worked out at 12.5 nM against HER2, 12 nM with BT-474 and 6.8 nM on EGFR.

On to `CC#C/C(=N\OCCNCCN(C)S(C)(=O)=O)c1ccc2ncnc(Nc3ccc4c(cnn4Cc4cccc(F)c4)c3)c2c1` [VIII-186], for which the IC50 against HER2 was determined as 26 nM; in the assay with BT-474, 29 nM; on EGFR, 19 nM.

For `CC#C/C(=N\OCCNCCOC(N)=O)c1ccc2ncnc(Nc3ccc4c(cnn4Cc4cccc(F)c4)c3)c2c1` [VIII-187], the IC50 turned out to be 9 nM against HER2, 24 nM in the assay with BT-474 and 10 nM on EGFR.

On to `CC#C/C(=N\OCCNC[C@H]1CCCO1)c1ccc2ncnc(Nc3ccc4c(cnn4Cc4cccc(F)c4)c3)c2c1` [VIII-188], for which the IC50 against HER2 worked out at 30 nM; with BT-474 it was 40 nM; against EGFR, 20 nM.

For `CC#C/C(=N\OCCNC[C@@H]1CCCO1)c1ccc2ncnc(Nc3ccc4c(cnn4Cc4cccc(F)c4)c3)c2c1` [VIII-189], the results for the IC50 on HER2, in the assay with BT-474 and at EGFR were 27 nM, 25 nM and 17 nM, respectively.

`CC#C/C(=N\OCCNC[C@H]1CCC(=O)N1)c1ccc2ncnc(Nc3ccc4c(cnn4Cc4cccc(F)c4)c3)c2c1` [VIII-190]: the IC50 stood at 11.1 nM against HER2, 14 nM in the assay on BT-474 and 8.9 nM at EGFR.

Turning to `CC#C/C(=N\OCCNC[C@@H]1COC(=O)N1)c1ccc2ncnc(Nc3ccc4c(cnn4Cc4cccc(F)c4)c3)c2c1` [VIII-191], the IC50 against HER2 came to 42 nM; with BT-474, 33 nM; on EGFR, 17 nM.

In the case of `CC#C/C(=N\OCCN(CC)CCOC)c1ccc2ncnc(Nc3ccc4c(cnn4Cc4cccc(F)c4)c3)c2c1` [VIII-192], the results for the IC50 at HER2, in the assay with BT-474 and against EGFR were 14.2 nM, 24 nM and 6.2 nM, respectively.

For `CC#C/C(=N\OCCN1CC[C@@H](OC(N)=O)C1)c1ccc2ncnc(Nc3ccc4c(cnn4Cc4cccc(F)c4)c3)c2c1` [VIII-193], the IC50 was determined as 15 nM at HER2, 25 nM in the assay on BT-474 and 14 nM against EGFR.
